The supplement of paper PMC10307832

Assays:
Assay in all cases: relative viability (nuclei count vs DMSO), 5 days (fraction); higher = more cells survive
AT-7519 + Dasatinib = compound: O=C(NC1CCNCC1)c1n[nH]cc1NC(=O)c1c(Cl)cccc1Cl [AT-7519] + Cc1nc(Nc2ncc(C(=O)Nc3c(C)cccc3Cl)s2)cc(N2CCN(CCO)CC2)n1 [Dasatinib] (partner 0.075 µM)
Procedure, shortened: (§1)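 Lung cancer cell lines were pin-tool dosed in 1536-well plates on the day after seeding, with either a lone drug or a fixed anchor-drug dose plus five library-drug doses (not always all listed) in √10 steps. Nuclei were counted on 4× images after 5 days. Relative viability is the ratio of treated-well to vehicle-well nuclei counts, with each value a median of duplicate plates.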

AT-7519 + Navitoclax = compound: O=C(NC1CCNCC1)c1n[nH]cc1NC(=O)c1c(Cl)cccc1Cl [AT-7519] + CC1(C)CCC(c2ccc(Cl)cc2)=C(CN2CCN(c3ccc(C(=O)NS(=O)(=O)c4ccc(N[C@H](CCN5CCOCC5)CSc5ccccc5)c(S(=O)(=O)C(F)(F)F)c4)cc3)CC2)C1 [Navitoclax] (partner 0.5 µM)
Procedure, shortened: as §1

AT-7519 + Pictilisib = compound: O=C(NC1CCNCC1)c1n[nH]cc1NC(=O)c1c(Cl)cccc1Cl [AT-7519] + CS(=O)(=O)N1CCN(Cc2cc3nc(-c4cccc5[nH]ncc45)nc(N4CCOCC4)c3s2)CC1 [Pictilisib] (partner 1 µM)
Procedure, shortened: as §1

[1] = compound: C1=CC2=C(C=C(C(=C2N=C1)O)N=NC3=CC4=C(C=C3)C=C(C=C4)S(=O)(=O)O)S(=O)(=O)O + CC(=O)c1c(C)c2cnc(Nc3ccc(N4CCNCC4)cn3)nc2n(C2CCCC2)c1=O [Palbociclib] (partner 0.5 µM)
Procedure, shortened: as §1

UMC-11
relative viability (AT-7519 + Dasatinib; first compound 0.01 µM): 0.413
relative viability (AT-7519 + Dasatinib; first compound 0.03162 µM): 0.482
relative viability (AT-7519 + Dasatinib; first compound 0.3162 µM): 0.297
relative viability (AT-7519 + Dasatinib; first compound 1 µM): 0.238
relative viability (AT-7519 + Navitoclax; first compound 0.01 µM): 0.291
relative viability (AT-7519 + Navitoclax; first compound 0.03162 µM): 0.306
relative viability (AT-7519 + Navitoclax; first compound 0.3162 µM): 0.222
relative viability (AT-7519 + Navitoclax; first compound 1 µM): 0.134
relative viability (AT-7519 + Pictilisib; first compound 0.01 µM): 0.787
relative viability (AT-7519 + Pictilisib; first compound 0.03162 µM): 0.814
relative viability (AT-7519 + Pictilisib; first compound 0.3162 µM): 0.417
relative viability (AT-7519 + Pictilisib; first compound 1 µM): 0.249
relative viability ([1]; first compound 0.08 µM): 0.325
relative viability ([1]; first compound 0.253 µM): 0.329
relative viability ([1]; first compound 0.8 µM): 0.326
relative viability ([1]; first compound 2.53 µM): 0.339
relative viability ([1]; first compound 8 µM): 0.324
